Measured values taken from patent US20090029982A1, “PROTEIN KINASE INHIBITORS” (SUPERGEN, INC., priority 2005, published 2009).

Legend:
[1] = tested on: HT-29 human colon cancer cells; assay: HT-29 xenograft study in mice; assay type: in vivo; settings: 25 mg/kg intraperitoneally, q.d.×5 for two weeks
Experimental: In order to evaluate the effectiveness of MP277 against tumor cells in a living system, a xenograft study was performed in mice. 1×10^7 HT-29 human colon cancer cells were injected subcutaneously into 16 Nu/Nu athymic nude mice (Charles River Laboratories, Wilmington, Mass.). Tumor volume was measured according to the formula ((Width)^2*Length)/2. Tumors were allowed to grow to approximately 100 mm^3 in volume (Day 0), at which point mice were randomized to two groups: Eight mice were treated with 25 mg/kg MP277, while the other eight were given an equal volume of drug vehicle. For this study, the drug vehicle used was 60% propylene glycol, 30% polyethylene glycol 300, 10% ethanol with 150 mg/mL 2-hydroxypropyl-beta-cyclodextrin. Each mouse received 0.1 mL of drug or vehicle intraperitoneally on a q.d.×5 schedule for two weeks, with two days rest between cycles.

[2] = biological target: T1, recombinant aurora-2 kinase (Homo sapiens, UniProt O14965); assay: aurora-2 kinase inhibition assay (Kinase-Glo, ATP remaining); assay type: biochemical; settings: Example 20, Table 2; 3 μM ATP, 62.5 μM Kemptide, 30° C., two hours; read-out: IC50 A2K
T1 construct: purchased Upstate, Lake Placid, N.Y; host or cells: sf9 cells
T1 sequence (O14965 1-403): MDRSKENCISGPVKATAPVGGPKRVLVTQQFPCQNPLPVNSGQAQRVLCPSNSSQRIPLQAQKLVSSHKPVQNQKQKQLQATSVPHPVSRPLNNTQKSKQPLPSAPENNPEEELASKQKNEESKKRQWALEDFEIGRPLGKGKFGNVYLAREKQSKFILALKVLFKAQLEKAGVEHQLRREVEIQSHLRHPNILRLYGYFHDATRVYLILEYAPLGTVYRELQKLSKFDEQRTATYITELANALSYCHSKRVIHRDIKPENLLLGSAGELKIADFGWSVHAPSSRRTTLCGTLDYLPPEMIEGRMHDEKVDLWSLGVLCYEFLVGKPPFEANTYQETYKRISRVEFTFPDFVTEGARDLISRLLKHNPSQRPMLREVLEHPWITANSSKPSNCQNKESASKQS
Experimental: In this assay kinase activity was determined by quantifying the amount of ATP remaining in solution following a kinase reaction by measuring the light units (LU) produced by luciferase using a luminometer. Percent inhibition was determined for individual compounds by comparing luminometer readings of drug-treated reactions to controls containing no drug (DMSO control) and no Aurora-2 enzyme (ATP control) in the following equation: […]
In a 50 μl reaction, recombinant aurora-2 kinase produced in sf9 cells (Upstate, Lake Placid, N.Y.) was incubated at 30° C. for two hours with 62.5 μM Kemptide (Calbiochem, San Diego, Calif.), 3 μM ATP (Invitrogen, Carlsbad, Calif.) and kinase reaction buffer (40 mM Tris-HCl, 10 mM MgCl2 and 0.1 μg/μl bovine serum albumin (BSA)). This reaction was carried out in the presence of drug substances, which had been previously diluted to desired concentrations in DMSO. […] Kinase activity is determined by quantifying the amount of ATP remaining in solution following the kinase reaction by measuring the light units (LU) produced by luciferase using a luminometer (Thermo-Electron, Vantaa, Finland).
Briefly, kinase activity was determined by quantifying the amount of ATP remaining in solution following a kinase reaction by measuring the light units (LU) produced by luciferase using a luminometer. […]

`CC(=O)NS(=O)(=O)c1ccc(NC(=S)N2CCN(c3ncnc4[nH]c5cc(C(F)(F)F)c(Cl)cc5c34)CC2)cc1` [Compound 1, 4-(6-Chloro-7-trifluoromethyl-9H-pyrimido[4,5-b]indol-4-yl)-piperazine-1-carbothioic acid (4-acetylsulfamoyl-phenyl)-amide] was tested, and the “toxicity noted through the duration of the study” value ([1]; nude mice) was “No noticeable toxicity” and the “inhibition of tumor growth in vivo” value ([1]; subcutaneous HT-29 xenograft, FIG. 1) was “effective for inhibiting tumor growth in vivo”.
With `COc1cc2[nH]c3ncnc(N4CCN(C(=S)Nc5ccc(S(=O)(=O)NC(C)=O)cc5)CC4)c3c2cc1OC` [Compound 2] the IC50 [2] was 5 nM.
